Drawing on patent publication US11306064B2, “Benzothia(di)azepine compounds and their use as bile acid modulators” (Albireo AB, priority 2018, dated 2022), this text covers IC50 for twelve compounds.

Usually IC50 stands for the concentration that gives 50% inhibition.

Common to all, as to assay type: cell-based
The target in assay [1] is T1, Human LBAT (Homo sapiens, UniProt Q14973).
T1 construct: expressed in transfected cells; kept under Geneticin selection
T1 sequence (Q14973 1-349): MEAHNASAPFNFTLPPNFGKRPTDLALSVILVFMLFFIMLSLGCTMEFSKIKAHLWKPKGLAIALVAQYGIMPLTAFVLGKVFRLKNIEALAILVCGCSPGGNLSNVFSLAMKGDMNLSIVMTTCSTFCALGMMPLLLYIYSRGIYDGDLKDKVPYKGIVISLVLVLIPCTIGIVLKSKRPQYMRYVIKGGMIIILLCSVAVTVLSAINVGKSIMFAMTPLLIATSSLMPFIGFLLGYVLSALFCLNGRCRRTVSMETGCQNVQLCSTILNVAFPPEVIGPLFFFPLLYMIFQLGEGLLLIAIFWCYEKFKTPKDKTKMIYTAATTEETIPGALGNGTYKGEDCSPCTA
The experiment in a line: LBAT (h/m) assay: 3H-taurocholic acid uptake in human LBAT-overexpressing cells. Conditions: 0.3 μM 3H-taurocholic acid and 7.5 μM cold taurocholic acid, 20 minutes, read-out: hLBAT IC50. Summed up:
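LBAT-overexpressing cells, serum-free MEM-alpha, 20 min at 37° C with inhibitor (3-fold, 10-point) plus 0.3 μM 3H-taurocholic acid and cold taurocholic acid (7.5 μM human; 25 μM mouse), 0.2% DMSO. Stopped on ice, washed with 1 mM unlabelled taurocholate; uptake by scintillation counting.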

The target of assay [2] is T2, Human ASBT (Homo sapiens, UniProt Q12908).
T2 construct: expressed in transfected cells; kept under Puromycin selection
T2 sequence (Q12908 1-348): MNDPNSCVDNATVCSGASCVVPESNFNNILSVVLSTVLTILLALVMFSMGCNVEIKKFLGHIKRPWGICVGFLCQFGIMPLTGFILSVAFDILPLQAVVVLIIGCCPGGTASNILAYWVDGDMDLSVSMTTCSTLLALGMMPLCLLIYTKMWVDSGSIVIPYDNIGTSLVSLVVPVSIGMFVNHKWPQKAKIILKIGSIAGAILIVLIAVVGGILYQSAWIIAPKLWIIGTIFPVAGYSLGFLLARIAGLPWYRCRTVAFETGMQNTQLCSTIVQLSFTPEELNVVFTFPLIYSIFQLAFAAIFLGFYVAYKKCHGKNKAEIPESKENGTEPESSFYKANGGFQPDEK
The experiment in a line: ASBT (h/m) assay: 3H-taurocholic acid uptake in human ASBT-overexpressing cells. To be noted: 0.25 μM 3H-taurocholic acid and 5 μM cold taurocholic acid, 20 minutes, read-out: hASBT IC50. As for the experimental part:
ASBT (h/m) Assay Protocol
10,000 cells (Human or Mouse ASBT-overexpressing cells) were seeded in 96-wells plate (Corning CLS3809) in 200 μL MEM-alpha medium (Gibco 12571-063) supplemented with 10% FBS (Gibco 10438026) containing Puromycin (Gibco A1113803) (10 μg/mL) and incubated at 37° C. in 5% CO2 for 48 hours. After incubation, media was decanted from the wells and cells were washed two times with 300 μL of basal MEM-alpha medium (FBS-free). After decanting basal MEM-alpha medium each time, plates were tapped against paper towel to ensure maximum removal of residual media. Test inhibitor dilutions (highest test concentration being 10 μM, 3-fold serial dilution, 10 points) prepared in DMSO (Sigma D2650) were added in incubation mix (maintaining 0.2% final DMSO concentration) containing 0.25 μM 3H-taurocholic acid (ARC ART-1368) and 5 μM of cold taurocholic acid (Sigma T4009). 50 μL of incubation mix containing test inhibitors was then added to the wells (in duplicate) and the plates were incubated for 20 minutes in a CO2 incubator at 37° C. After incubation, the reaction was stopped by keeping the plates on ice water mix for 2-3 minutes and then the incubation mix was aspirated completely from the wells. The wells were washed two times with 250 μL of chilled unlabelled 1 mM taurocholic acid dissolved in HEPES (Gibco 15630080)-buffered (10 mM) HBSS (Gibco 14175079) (pH 7.4). The plates were tapped against a paper towel after every wash to ensure maximum removal of blocking buffer.
100 μL of MicroScint-20 (PerkinElmer 6013621) was added to the wells and kept overnight at room temperature before reading the plates in TopCount NXT™ Microplate Scintillation and Luminescence Counter from PerkinElmer under 3H Test protocol (set at 120 seconds reading time per well).
(§1) Preparation of Test Compound Dilutions
(§2) All test compounds were provided in powder form at room temperature. 10 mM DMSO stocks of the test compounds were prepared, aliquoted and stored at −20° C. From the 10 mM DMSO stock of the compounds, a 3-fold serial dilution in DMSO was prepared to get a total of 10 dilutions of the test compounds. 0.5 μL of this dilution in DMSO was added to 250 μL of FBS-free basal media containing 3H-taurocholic acid and cold taurocholic acid to prepare the incubation mixture.

Assay [3] concerns HepaRG cells. The experiment in a line: HepaRG-based assay: 3H-taurocholic acid uptake in differentiated HepaRG cells. To be noted: Homo sapiens, HepaRG, 0.3 μM 3H-taurocholic acid and 7.5 μM cold taurocholic acid, 30 minutes. As for the experimental part: HepaRG-Based Assay Protocol
A cryopreserved vial of differentiated HepaRG cells (Biopredic International HPR116080) was thawed in HepaRG Thawing/Plating/General Purpose Medium (Biopredic International ADD670C) supplemented with 200 mM Glutamax (Gibco 35050061) following the protocol provided by Biopredic International. 70,000 cells per well were seeded in 96-wells plate (Corning CLS3809) in 100 μL of HepaRG Thawing/Plating/General Purpose Medium supplemented with 200 mM Glutamax and incubated at 37° C. in 5% CO2 for 24 hours. Post incubation, the seeding media was replaced by HepaRG Maintenance/Metabolism Medium (Biopredic International ADD620C) and incubated for 6 days, with fresh HepaRG Maintenance/Metabolism Medium replenishment every 48 hours. After 7 days incubation post seeding, incubation media was decanted from the wells and cells were washed two times with 250 μL of William's E Basal Media (Gibco 12551032). After decanting William's E Basal Media each time, plates were tapped against paper towel to ensure maximum removal of residual media.
Incubation mix was prepared by adding test inhibitor dilutions (3-fold serial dilution in DMSO (Sigma D2650)) in William's E media (basal) containing 0.3 μM 3H-taurocholic acid (ARC ART-1368) and 7.5 μM cold taurocholic acid (Sigma T4009) (maintaining 0.2% final DMSO concentration). 50 μl of incubation mix containing test inhibitors was then added to the wells (in duplicate) and the plates were incubated for 30 minutes in 5% CO2 incubator at 37° C. After incubation, the reaction was stopped by keeping the plates on ice water mix for 2-3 minutes and then the incubation mix was aspirated completely from the wells. The wells were washed two times with 250 μL of chilled unlabelled 1 mM taurocholic acid dissolved in HEPES (Gibco 15630080)-buffered (10 mM) HBSS (Gibco 14175079) (pH 7.4). The plates were tapped against a paper towel after every wash to ensure maximum removal of blocking buffer.
100 μL of MicroScint-20 (PerkinElmer 6013621) was added to the wells and kept overnight at room temperature before reading the plates in TopCount NXT™ Microplate Scintillation and Luminescence Counter from PerkinElmer under 3H Test protocol (set at 120 seconds reading time per well, with normal plate orientation).
as §1, §2

Take `CCCCC1(CC)CN(c2ccccc2)c2cc(SC)c(O/C=C/C(=O)O)cc2S(=O)(=O)C1` (racemic) [Example 16, (E)-3-((3-butyl-3-ethyl-7-(methylthio)-1,1-dioxido-5-phenyl-2,3,4,5-tetrahydro-1,5-benzothiazepin-8-yl)oxy)acrylic Acid]: the IC50 came to 82 nM in assay [1], 33 nM in assay [2] and 1030 nM in assay [3].

Turning to `CCCCC1(CC)CN(c2ccccc2)c2cc(SC)c(O/C=C(\F)C(=O)O)cc2S(=O)(=O)C1` (racemic) [Example 41, (Z)-3-((3-butyl-3-ethyl-7-(methylthio)-1,1-dioxido-5-phenyl-2,3,4,5-tetrahydro-1,5-benzothiazepin-8-yl)oxy)-2-fluoroacrylic Acid], the IC50 in assay [1] was found to be 8.3 nM; in assay [2], 26 nM; in assay [3], 336 nM.

With `CCCCC1(CC)CN(c2ccccc2)c2cc(Cl)c(O/C=C(\F)C(=O)O)cc2S(=O)(=O)C1` (racemic) [Example 46, (Z)-3-((3-butyl-7-chloro-3-ethyl-1,1-dioxido-5-phenyl-2,3,4,5-tetrahydro-1,5-benzothiazepin-8-yl)oxy)-2-fluoroacrylic Acid], the results for the IC50 in assay [1], in assay [2] and in assay [3] were 24 nM, 97 nM and 590 nM, respectively.

On to `CCCCC1(CC)CN(c2ccccc2)c2cc(Cl)c(O/C=C/C(=O)O)cc2S(=O)(=O)C1` (racemic) [Example 49, (E)-3-((3-butyl-7-chloro-3-ethyl-1,1-dioxido-5-phenyl-2,3,4,5-tetrahydro-1,5-benzothiazepin-8-yl)oxy)acrylic Acid], for which the values for the IC50 in assay [1], in assay [2] and in assay [3] were 94 nM, 220 nM and 570 nM, respectively.

On to `CCCCC1(CC)CN(c2ccccc2)c2cc(Br)c(O/C=C(\F)C(=O)O)cc2S(=O)(=O)C1` (racemic) [Example 63, (Z)-3-((7-bromo-3-butyl-3-ethyl-1,1-dioxido-5-phenyl-2,3,4,5-tetrahydro-1,5-benzothiazepin-8-yl)oxy)-2-fluoroacrylic Acid], for which the IC50 in assay [1] amounted to 10 nM; in assay [2], 35 nM; in assay [3] it was 358 nM.

On to `CCCCC1(CC)CN(c2ccccc2)c2cc(SC)c(O/C=C(\F)C(=O)O)cc2S(=O)(=O)N1` (racemic) [Example 84, (Z)-3-((3-butyl-3-ethyl-7-(methylthio)-1,1-dioxido-5-phenyl-2,3,4,5-tetrahydro-1,2,5-benzothiadiazepin-8-yl)oxy)-2-fluoroacrylic Acid], for which the IC50 in assay [1] came to 31 nM; in assay [2] it was 28 nM; in assay [3], 559 nM.

On to `CCCCC1(CC)CN(c2ccccc2)c2cc(SC)c(O/C=C/C(=O)O)cc2S(=O)(=O)N1C` (racemic) [Example 88, (E)-3-((3-butyl-3-ethyl-2-methyl-7-(methylthio)-1,1-dioxido-5-phenyl-2,3,4,5-tetrahydro-1,2,5-benzothiadiazepin-8-yl)oxy)acrylic Acid], for which the IC50 in assay [1] was 70 nM; in assay [2] it was 2250 nM; in assay [3], 1150 nM.

Regarding `CCCCC1(CC)CN(c2ccccc2)c2cc(SC)c(O/C=C(\F)C(=O)O)cc2S(=O)(=O)N1C` (racemic) [Example 98, (Z)-3-((3-butyl-3-ethyl-2-methyl-7-(methylthio)-1,1-dioxido-5-phenyl-2,3,4,5-tetrahydro-1,2,5-benzothiadiazepin-8-yl)oxy)-2-fluoroacrylic Acid], the values for the IC50 in assay [1], in assay [2] and in assay [3] were 22 nM, 286 nM and 671 nM, respectively.

Turning to `CCCCC1(CC)CN(c2ccccc2)c2cc(SC)c(O/C=C(\F)C(=O)O)cc2S(=O)(=O)C1` (single isomer, unassigned) [Example 42, (Z)-3-((3-butyl-3-ethyl-7-(methylthio)-1,1-dioxido-5-phenyl-2,3,4,5-tetrahydro-1,5-benzothiazepin-8-yl)oxy)-2-fluoroacrylic acid], the IC50 amounted to 10 nM in assay [1], 220 nM in assay [2] and 378 nM in assay [3].

In the case of `CCCCC1(CC)CN(c2ccccc2)c2cc(Cl)c(O/C=C(\F)C(=O)O)cc2S(=O)(=O)C1` (single isomer, unassigned) [Example 47, (Z)-3-((3-butyl-7-chloro-3-ethyl-1,1-dioxido-5-phenyl-2,3,4,5-tetrahydro-1,5-benzothiazepin-8-yl)oxy)-2-fluoroacrylic acid], the IC50 in assay [1] is 25 nM; in assay [2] it was 339 nM; in assay [3], 362 nM.

Consider `CCCCC1(CC)CN(c2ccccc2)c2cc(Cl)c(O/C=C/C(=O)O)cc2S(=O)(=O)C1` (single isomer, unassigned) [Example 50, (E)-3-((3-butyl-7-chloro-3-ethyl-1,1-dioxido-5-phenyl-2,3,4,5-tetrahydro-1,5-benzothiazepin-8-yl)oxy)acrylic acid], for which the IC50 was found to be 89 nM in assay [1], 77 nM in assay [2] and 339 nM in assay [3].

As to `CCCCC1(CC)CN(c2ccccc2)c2cc(I)c(O/C=C/C(=O)O)cc2S(=O)(=O)C1` (single isomer, unassigned) [Example 57, (E)-3-((3-butyl-3-ethyl-7-iodo-1,1-dioxido-5-phenyl-2,3,4,5-tetrahydro-1,5-benzothiazepin-8-yl)oxy)acrylic acid], the IC50 in assay [1] stood at 137 nM; in assay [2], 361 nM; in assay [3], 1160 nM.
